Several values for one entry are separate records, joined by “and”; a condition that tells them apart may be missing. Identical values can stand only once. Entries after “also recorded” stand apart in the source; their conditions may differ.
Columns and labels:
[1] = target: T1, Trpv2 (Rattus norvegicus, UniProt Q9WUD2); assay: Intracellular calcium influx (Fluo-4 NW) in DA FLS; assay type: cell-based; design: endogenous in cells; host or cells: fibroblast-like synoviocytes (FLS) from DA rats; conditions: for Intracellular calcium influx vs untreated and vehicle: increasing concentrations, two DA FLS cell lines
T1 sequence (Q9WUD2 1-761): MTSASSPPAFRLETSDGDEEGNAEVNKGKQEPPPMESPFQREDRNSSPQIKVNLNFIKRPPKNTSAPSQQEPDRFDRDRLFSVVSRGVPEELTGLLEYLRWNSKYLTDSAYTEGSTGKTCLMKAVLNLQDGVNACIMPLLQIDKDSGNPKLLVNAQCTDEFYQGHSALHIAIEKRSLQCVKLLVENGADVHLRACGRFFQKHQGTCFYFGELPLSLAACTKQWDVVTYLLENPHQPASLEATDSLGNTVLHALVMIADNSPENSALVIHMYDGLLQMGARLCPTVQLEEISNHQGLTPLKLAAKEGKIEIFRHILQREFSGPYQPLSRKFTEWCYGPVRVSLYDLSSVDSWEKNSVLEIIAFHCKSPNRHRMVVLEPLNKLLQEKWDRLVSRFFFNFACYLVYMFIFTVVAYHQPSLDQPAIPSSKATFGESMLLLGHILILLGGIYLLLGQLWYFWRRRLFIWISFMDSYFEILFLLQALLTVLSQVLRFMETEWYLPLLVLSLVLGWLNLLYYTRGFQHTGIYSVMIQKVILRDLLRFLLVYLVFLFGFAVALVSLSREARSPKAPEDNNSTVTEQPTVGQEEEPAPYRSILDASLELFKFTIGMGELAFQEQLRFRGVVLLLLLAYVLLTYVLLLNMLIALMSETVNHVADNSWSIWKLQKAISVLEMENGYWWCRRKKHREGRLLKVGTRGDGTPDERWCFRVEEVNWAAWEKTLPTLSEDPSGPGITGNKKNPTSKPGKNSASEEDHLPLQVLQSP
Procedure: Intracellular calcium influx was measured using the Fluo-4 NW calcium assay kit (Molecular Probes/Invitrogen) according to the manufacturer's instructions, as previously described (Laragione et al., “CXCL10 and its Receptor CXCR3 Regulate Synovial Fibroblast Invasion in Rheumatoid Arthritis,” Arthritis Rheum. 63 (11):3274-3283 (2011), which is hereby incorporated by reference in its entirety). Briefly, DA FLS were plated at a density of 4,500 cells/well in a 96-well plate (100 μl volume of complete media per well). After cell adhesion the media was changed to serum-free media for overnight culture. Serum-free media was then replaced with 50 μl of dye loading solution, followed by incubation at 37° C. for 30 minutes and a baseline fluorimetric reading. Then, O1821, LER13, or vehicle were added to their respective wells at different concentrations and fluorescence read immediately in a Fluoroskan Ascent Microplate Fluorometer (Thermo Scientific) with settings appropriate for excitation at 494 nm and emission at 516 nm.

[2] = test system: FLS from a C57BL/6 mouse with KRN serum-induced arthritis; assay: Matrigel transwell invasion assay, mouse FLS; assay type: cell-based; conditions: 10 μM, one cell line in triplicate
Procedure: The in vitro invasiveness of FLS was assayed in a transwell system using Matrigel-coated inserts (BD Biosciences, Franklin Lakes, N.J.), as previously described (Tolboom et al., “Invasiveness of Fibroblast-Like Synoviocytes is an Individual Patient Characteristic Associated with the Rate of Joint Destruction in Patients with Rheumatoid Arthritis,” Arthritis Rheum. 52 (7):1999-2002 (2005); Laragione et al., “The Arthritis Severity Locus Cia5d is a Novel Genetic Regulator of the Invasive Properties of Synovial Fibroblasts,” Arthritis Rheum. 58 (8):2296-2306 (2008), which are hereby incorporated by reference in their entirety). Briefly, 70-80% confluent cells were harvested by trypsin-EDTA digestion, and re-suspended at 2.0×10^4 cells in 500 μl of serum-free DMEM. Cells were placed in the upper compartment of the Matrigel-coated inserts. Where indicated, O1821, LER13, or vehicle was added to the upper chamber. The lower compartment was filled with complete media and the plates were incubated at 37° C. for 24 hours. After 24 hours the upper surface of the insert was wiped with cotton-swabs to remove non-invading cells and the Matrigel layer. The opposite side of the insert was stained with Crystal Violet (Sigma) and the total number of cells that invaded through Matrigel counted at 100× magnification. […]

[3] = test system: FLS from DA rats with PIA; assay: Matrigel transwell invasion assay, FLS from DA rats with PIA (incl. siRNA knock-down); assay type: cell-based, rat; conditions: for Reduction of FLS invasion: DA cells, overnight
Procedure: The in vitro invasiveness of FLS was assayed in a transwell system using Matrigel-coated inserts (BD Biosciences, Franklin Lakes, N.J.), as previously described (Tolboom et al., “Invasiveness of Fibroblast-Like Synoviocytes is an Individual Patient Characteristic Associated with the Rate of Joint Destruction in Patients with Rheumatoid Arthritis,” Arthritis Rheum. 52 (7):1999-2002 (2005); Laragione et al., “The Arthritis Severity Locus Cia5d is a Novel Genetic Regulator of the Invasive Properties of Synovial Fibroblasts,” Arthritis Rheum. 58 (8):2296-2306 (2008), which are hereby incorporated by reference in their entirety). Briefly, 70-80% confluent cells were harvested by trypsin-EDTA digestion, and re-suspended at 2.0×10^4 cells in 500 μl of serum-free DMEM. Cells were placed in the upper compartment of the Matrigel-coated inserts. Where indicated, O1821, LER13, or vehicle was added to the upper chamber. The lower compartment was filled with complete media and the plates were incubated at 37° C. for 24 hours. After 24 hours the upper surface of the insert was wiped with cotton-swabs to remove non-invading cells and the Matrigel layer. The opposite side of the insert was stained with Crystal Violet (Sigma) and the total number of cells that invaded through Matrigel counted at 100× magnification. Experiments were done in duplicate.
Dharmacon SMARTpool siRNA targeting Trpv2, Gapdh, or a non-coding control were purchased from Thermo Scientific (Lafayette, Colo.) and transfected into DA FLS according to the manufacturer's instructions. Cells were then incubated at 37° C. for 72 hours prior to initiating the invasion assays. Knock-down was confirmed with qPCR and Western blot.

[4] = test system: p65 NFκB; assay: p65 NFκB nuclear location by immunofluorescence in FLS; assay type: cell-based; conditions: 5, 10, 30, and 60 minutes, and 24 hours
[5] = test system: phosphorylated Akt; assay: FLS levels of phosphorylated Akt; assay type: cell-based

SMILES	Calcium influx higher compared with O1821 ([1]; DA FLS) [%]	Intracellular calcium influx vs untreated and vehicle [1]	Calcium influx ([1]; measured over 200 seconds, compared with O1821)	Reduction in invasion vs control vehicle ([2]; listed as LER13)	Suppression of FLS invasion ([3]; 10 μM, non-transfected, siRNA control and siRNA GAPDH DA FLS, listed as LER13)	Suppression of FLS invasion after Trpv2 siRNA knock-down ([3]; siRNA Trpv2 transfected FLS, listed as LER13)	p65 NFκB activation (nuclear location) [4]	Levels of phosphorylated Akt [5]	Reduction in invasion vs control vehicle [2] [%]	Reduction of FLS invasion ([3]; 1 μM) [%]	Reduction of FLS invasion ([3]; 10 μM) [%]
C#Cc1cc(O)c(C2C=C(C)CCC2C(=C)C)c(O)c1C1C=C(C)CCC1C(=C)C [Compound 13, (1R,2″R,2R,2″S)-6′-ethynyl-5,5″-dimethyl-2,2″-di(prop-1-en-2-yl)-1,1″,2,2″,3,3″,4,4″-octahydro-[1,1′:3′,1″-terphenyl]-2′,4′-diol]	~30	significantly increased intracellular calcium influx	increased (30% greater than O1821)	65% and 75%	65% and 60%	non-responsive; also recorded: not responsive or suppressed	–	–	–	–	–
C=C(C)[C@@H]1CCC(C)=C[C@H]1c1c(O)cc(C)cc1O [Compound O1821]	–	significant dose-dependent increase; also recorded: significantly increased intracellular calcium influx	–	–	–	–	did not change	did not affect	65	80	99.4
